Assay results from patent US9428483B2, “Prodrug of fluorine-containing amino acid” (TAISHO PHARMACEUTICAL CO., LTD., priority 2012, dated 2016).

What was measured:
[1] = Test 2: generation of Compound (IV) in human hepatic microsomes; assay type: in vitro ADME; conditions: human hepatic microsome
Experimental: A test to determine the percent generation of Compound (IV) in human and monkey hepatic microsomes was conducted for Inventive Compounds (I) in accordance with the following method. As a control for comparison, an ethyl ester form of Compound (IV) (Reference Example 1) was used.
A test compound was incubated (37° C.×15 min) in a 0.250 M phosphate buffer (pH 7.4) containing 69 mM KCl, together with a human hepatic microsome (Ms) fraction (Xenotech/H630B/lot, 0810472) or a monkey Ms fraction (BD Biosciences/452413/lot, 94518) in the presence of a NADPH generation system (0.16 mM NADP^+, 2.4 mM MgCl2, 1.5 mM glucose-6-phosphate). The final concentrations of the test compound and hepatic Ms protein were adjusted to 3 μM and 1 mg protein/mL, respectively. To the incubated reaction mixture, 2 volumes of DMSO was added, followed by stirring and centrifugation at 3000 rpm (4° C.×10 min) The resulting supernatant was subjected to analysis by a liquid chromatography-tandem mass spectrometry (LC-MS/MS) system. The lower quantitation limit was 0.3 μM for both the test compound and Compound (IV).

mGluR3 = mGluR3 (Homo sapiens, UniProt Q14832); conditions: read-out: EC50 value for the agonistic activity for mGluR3; cited from earlier work
mGluR3, sequence (Q14832 23-879): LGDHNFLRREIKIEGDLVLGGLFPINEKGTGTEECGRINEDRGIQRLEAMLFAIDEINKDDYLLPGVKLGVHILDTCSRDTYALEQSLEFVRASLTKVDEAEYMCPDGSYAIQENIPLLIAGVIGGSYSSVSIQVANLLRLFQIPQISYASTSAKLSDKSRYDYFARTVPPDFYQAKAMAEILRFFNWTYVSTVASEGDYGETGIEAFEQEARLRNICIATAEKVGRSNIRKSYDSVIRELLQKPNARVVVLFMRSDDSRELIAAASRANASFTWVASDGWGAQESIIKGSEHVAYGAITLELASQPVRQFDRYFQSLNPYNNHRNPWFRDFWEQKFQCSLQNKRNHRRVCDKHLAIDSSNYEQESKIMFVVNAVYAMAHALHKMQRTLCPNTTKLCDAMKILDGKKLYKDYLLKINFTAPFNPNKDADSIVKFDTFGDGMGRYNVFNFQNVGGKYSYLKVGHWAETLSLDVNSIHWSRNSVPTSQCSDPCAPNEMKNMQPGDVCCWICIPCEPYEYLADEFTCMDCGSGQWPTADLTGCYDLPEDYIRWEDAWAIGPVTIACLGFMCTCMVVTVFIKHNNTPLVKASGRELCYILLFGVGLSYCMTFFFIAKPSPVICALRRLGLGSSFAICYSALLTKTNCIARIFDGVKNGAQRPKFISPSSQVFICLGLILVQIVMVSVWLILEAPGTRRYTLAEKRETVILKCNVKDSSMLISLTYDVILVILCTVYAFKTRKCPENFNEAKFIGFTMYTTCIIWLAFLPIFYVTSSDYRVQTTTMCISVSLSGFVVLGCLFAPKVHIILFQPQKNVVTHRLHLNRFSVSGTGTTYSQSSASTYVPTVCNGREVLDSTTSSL

[2] = tested on: conditioned avoidance response; conditions: schizophrenia model; cited from earlier work
[3] = Test 5: plasma concentrations of Compound (IV) in monkey after oral administration; assay type: in vivo, cynomolgus monkeys
Experimental: A test to measure the plasma concentration of Compound (IV) upon oral administration of Compound (IV) and Inventive Compounds (I) was conducted in accordance with the following method.
Compound (IV) or Inventive Compounds (I) was orally administered to male cynomolgus monkeys (fed condition) at a dose of 4.92 μmol/kg (vehicle: 0.5% methyl cellulose (MC) solution; administered at a dose of 5 mL/kg).
Two and 4 hours after the oral administration, approximately 0.7 mL of blood was taken from the cephalic vein (anticoagulant: EDTA-2K). The plasma recovered by centrifugation (3000 rpm, 4° C.×10 min) was stored frozen at −80° C. until use for analysis. In the case of analysis, 50 μL of the plasma sample was thawed under cooling with ice and after adding 200 μL of a liquid acetonitrile/methanol mixture containing an internal standard substance, the resulting mixture was stirred and centrifuged (4° C.×10 min); the resulting supernatant was subjected to LC-MS/MS analysis. The lower quantitation limits of Inventive Compounds (I) and Compound (IV) were 1 ng/mL and 3 ng/mL, respectively.

[4] = tested on: phencyclidine-elicited head-weaving behavior; conditions: schizophrenia model; cited from earlier work
schizophrenia model rat = conditions: cited from earlier work
[5] = Test 4: percent generation of Compound (IV) in human small intestine S9; assay type: in vitro ADME; conditions: 3 μM, 1 mg protein/mL, 37° C. x 1 hr
Experimental: A test to determine the percent generation of Compound (IV) in human intestine S9 was conducted for Inventive Compounds (I) in accordance with the following method.
Inventive Compounds were incubated (37° C.×1 hr) in a 0.1 M phosphate buffer (pH 7.4) together with a human intestine S9 fraction (Xenotech, LLC/CP710571/Lot, 710571) in the presence of Mg^2+ (5 mM), Ca^2+ (5 mM) and Zn^2+ (0.1 mM). The final concentrations of each Inventive Compound and the small intestine S9 protein were adjusted to 3 μM and 1 mg protein/mL, respectively. To the incubated reaction mixture, 3 volumes of DMSO was added, followed by stirring and centrifugation at 3000 rpm (4° C.×10 min). The resulting supernatant was subjected to analysis by a liquid chromatography-tandem mass spectrometry (LC-MS/MS) system. The lower quantitation limit was 0.3 μM for both Inventive Compounds (I) and Compound (IV).
The LC-MS/MS system used in the measurement was equipped with Waters XBridge Amide (3.5 μm, 50 mm×4.6 mm I.D.), Waters Atlantis T3 (3 μm, 50 mm×4.6 mm I.D.), or Shimadzu Shim-pack XR-ODS (2.2 μm, 30 mm×3.0 mm I.D.) as a separation column. The mobile phase was a 0.1% formic acid/acetonitrile solution or a 0.1% formic acid/methanol solution (flow rate: 0.7-1.3 mL/min) and the analyte was eluted in a linear gradient mode. MS/MS detection of Inventive Compounds (I) and Compound (IV) was performed using an API4000 or Triple quad 5500 system with TurbolonSpray interface (both being products of AB SCIEX) in either a positive or negative ion detection mode. The percent generation of Compound (IV) in human small intestine S9 is shown in the following Table 6 with respect to Inventive Compounds.

[6] = Test 1: Solution Stability Test; assay type: physicochemical; conditions: 37° C., one hour, about 50 μg/mL; for Compound's percent residue (%) pH 6.5: 20 mM phosphate buffer (pH 6.5); for Compound's percent residue (%) pH 1.2: hydrochloric acid solution (pH 1.2)
Experimental: Inventive Compounds (I) were tested for their stability in solutions simulating the gastric and small intestine's digestive fluids identified below.
The percent residues of Inventive Compounds (I) in a hydrochloric acid solution (pH 1.2) and 20 mM phosphate buffer (pH 6.5) were measured in accordance with the following test method.
A test compound was dissolved in a hydrochloric acid solution (pH 1.2) containing hydrochloric acid and sodium chloride or a 20 mM phosphate buffer (pH 6.5) containing disodium hydrogenphosphate, sodium dihydrogenphosphate and sodium chloride to prepare a solution with a concentration of about 50 μg/mL (near the solubility if undissolved). The solution was incubated at 37° C. for an hour and the compound's concentration before and after the incubation was quantified by high-performance liquid chromatography to calculate the percent residue of the compound.

Row | SMILES | Percent generation (%) of Compound IV in human small intestine S9 [5] | Compound's percent residue (%) pH 6.5 [6] | Compound's percent residue (%) pH 1.2 [6] | further results
1 | CCOC(=O)[C@H]1[C@@H]2C[C@H](F)[C@@](N)(C(=O)O)[C@@H]21 [Ref. Ex. 1, (1S,2S,3S,5R,6S)-2-amino-6-(ethoxycarbonyl)-3-fluorobicyclo[3.1.0]hexane-2-carboxylic acid] |  |  |  | test compound remaining unchanged [1]: approximately 100%
2 | N[C@]1(C(=O)O)[C@H]2[C@@H](C[C@@H]1F)[C@@H]2C(=O)O [Compound IV, (1S,2S,3S,5R,6S)-2-amino-3-fluorobicyclo[3.1.0]hexane-2,6-dicarboxylic acid] |  |  |  | EC50 (mGluR3): 45.4 nM; effect on conditioned avoidance response [2]: has the effect of suppressing; oral absorbability ([3]; in monkeys): poor; effect on phencyclidine-elicited head-weaving behavior [4]: has the effect of suppressing; ED50 value, suppressing phencyclidine-elicited hyperactivity (schizophrenia model rat): 5.1 mg/kg
3 | C[C@H](OC(=O)[C@H]1[C@@H]2C[C@H](F)[C@@](N)(C(=O)O)[C@@H]21)OC(=O)C12CC3CC(CC(C3)C1)C2.Cl |  |  |  | melting point: 164 °C (dec.)

Second part, led by results:

Row | Percent generation (%) of Compound IV in human small intestine S9 [5] | Compound's percent residue (%) pH 6.5 [6] | Compound's percent residue (%) pH 1.2 [6] | SMILES | further results
4 | 20.9% | 102% | 103% | CSCC[C@H](N)C(=O)N[C@]1(C(=O)O)[C@H]2[C@@H](C[C@@H]1F)[C@@H]2C(=O)O.Cl [Ex. D-1, (1S,2S,3S,5R,6S)-2-((S)-2-amino-4-(methylthio)butanamide)-3-fluorobicyclo[3.1.0]hexane-2,6-dicarboxylic acid hydrochloride] | Concentration (ng/mL) of Compound IV in monkey plasma, After 2 hr ([3]; oral 4.92 μmol/kg, male cynomolgus monkeys (fed), 2 hr): 141 ng/mL; Concentration (ng/mL) of Compound IV in monkey plasma, After 4 hr ([3]; oral 4.92 μmol/kg, male cynomolgus monkeys (fed), 4 hr): 128 ng/mL
5 | <10% | 100% | 101% | CCC[C@H](N)C(=O)N[C@]1(C(=O)O)[C@H]2[C@@H](C[C@@H]1F)[C@@H]2C(=O)O.Cl [Ex. D-4, (1S,2S,3S,5R,6S)-2-((S)-2-amino-4-methylbutanamide)-3-fluorobicyclo[3.1.0]hexane-2,6-dicarboxylic acid hydrochloride] | 
6 | 17.8% | 103% | 100% | C[C@H](N)C(=O)N[C@]1(C(=O)O)[C@H]2[C@@H](C[C@@H]1F)[C@@H]2C(=O)O.Cl [Ex. D-2, (1S,2S,3S,5R,6S)-2-((S)-2-aminopropanamide)-3-fluorobicyclo[3.1.0]hexane-2,6-dicarboxylic acid hydrochloride] | 
